Legend:
Assay type in all cases: physicochemical
[1] = Particle size analysis by laser diffraction of neat API; settings: for Particle Size Mean / Particle Size Median / Particle Size Mode: dispersed in cyclohexane
Text: For particle size analysis, by laser diffraction (LD), a small sample of the dry powder was dispersed into cyclohexane with sonication and then diluted to an appropriate signal level. The optical microscope was a Zeiss Model Std 25 fitted with a 40× objective. […] The Raman spectrometer was a Horiba XploRA Raman Microscope.

[2] = Optical microscopic examination of neat API dry powder; settings: for estimates of size range by optical microscopy: 400× magnification
Text: Neat API: For optical microscopic/image analysis examination the material was used as received. A small aliquot was placed on a clean microscope slide and a clean glass coverslip placed on top.
(§1) The optical microscope was a Zeiss Model Std 25 fitted with a 40× objective. The particle size analyzers were the Horiba LA 950 (LD) and a Malvern NanoSizer 90Z (DLS). The Raman spectrometer was a Horiba XploRA Raman Microscope.

[3] = Particle size of aspirin formulation vs dry aspirin (Example 4, DLS Z-average)
Description: The particle size of aspirin (dry powder) and the aspirin diluted in the dermal and/or transdermal liquid formulation set forth in Example 1 were compared. Two studies were carried out to determine the particle size (and distribution) of samples of: (i) the formulation of Example 1, lacking only the aspirin (delivery system control), (ii) the formulation of Example 1, including the aspirin (experimental) and (iii) pure (dry) aspirin (control).

[4] = Particle size analysis by Dynamic Light Scattering (Example 8); settings: DLS intensity data
Text: as §1

| Compound | size of the majority of particles [1] | Particle Size Mean [1] [μm] | Particle Size Median [1] [μm] | Particle Size Mode [1] [μm] | particle size prior to formulation [2] | estimates of size range by optical microscopy [2] | size relative to aspirin in the formulation of Example 1 ([3]; dry aspirin vs formulated aspirin) | average particle size ([3]; dry aspirin, prior to formulation) [microns] | presence of particles as large as [4] [μm] |
| --- | --- | --- | --- | --- | --- | --- | --- | --- | --- |
| CC(C(=O)O)c1cccc(C(=O)c2ccccc2)c1 (racemic) [Ketoprofen, (RS)2-(3-benzoylphenyl)-propionic acid] | about 30 μm | 34 | 27 | 28 | – | – | – | – | – |
| CC(=O)Nc1ccc(O)cc1 [Acetaminophen, N-acetyl-para-aminophenol] | – | 58 | 44 | 42 | 1-100 microns | from around one or two microns (μm) to over 100 μm | – | – | – |
| CC(C)Cc1ccc(C(C)C(=O)O)cc1 (stereo not drawn) [Ibuprofen, iso-butyl-propanoic-phenolic acid] | – | 78 | 70 | 72 | – | from around 10 μm to over 100 μm | – | – | – |
| COc1ccc2cc(C(C)C(=O)O)ccc2c1 (stereo not drawn) [Naproxen, 2-(6-methoxynaphthalen-2-yl)propanoic acid] | around 20 μm | 23 | 23 | 19 | – | singlet particles of only a few microns in size and aggregates as large as 100 μm | – | – | – |
| CC(=O)Oc1ccccc1C(=O)O [pure (dry) Aspirin, acetylsalicylic acid] | – | – | – | – | – | – | more than 10,000 times | 670 | – |
| Neat Insulin: insulin supplied as an aqueous solution/suspension | – | – | – | – | – | – | – | – | ≤ 5 |

From patent US12285487B2, “Liquid topical pharmaceutical nano-emulsion formulations” (JRX BIOTECHNOLOGY, INC., priority 2012, dated 2025)
